How the values were obtained:
Recombinant human DDR2 = Recombinant human DDR2 (Homo sapiens (Human), UniProt Q16832); test: LanthaScreen Eu Kinase Binding Assay, DDR2; settings: DDR2 1.75 nM (aa427-855, GST tag), Kinase Tracer 178 10 nM; for IC50: read-out: DDR2 pIC50 (converted)
Description: (§1) DDR1 and DDR2 Biochemical Assay Method
(§2) The capacity of compounds to bind to DDR1 and DDR2 was quantified using a LanthaScreen Eu Kinase Binding Assay. Recombinant human DDR1 (2.5 nM; aa440-876 containing a GST tag) and DDR2 (1.75 nM; aa427-855 containing a GST tag) were diluted in assay buffer (50 mM HEPES pH7.3, 10 mM MgCl2, 1 mM EGTA and 0.01% Tween) with various concentrations of compound in a 384-well plate and a volume of 5 uL. After a 30-minute incubation at room temperature, 2.5 uL of Eu-anti GST antibody (diluted to 1 nM in assay buffer) plus Kinase Tracer 178 (diluted in assay buffer to 5 nM for DDR1 and 10 nM for DDR2) were added to the plate. Following 60-minute incubation at room temperature, time-resolved fluorescence was measured on a BMG Labtech PHERAstar plate reader. DMSO (1%) and reference compound (1 μM) were used to generate the Max and Min assay signals, respectively. Data was analysed using a four-parameter logistic model to calculate IC50 values, with at least two independent replicates were performed for each compound.

Recombinant human DDR1 = Recombinant human DDR1 (Homo sapiens (Human), UniProt Q08345); test: LanthaScreen Eu Kinase Binding Assay, DDR1; settings: DDR1 2.5 nM (aa440-876, GST tag), Kinase Tracer 178 5 nM; for IC50: read-out: DDR1 pIC50 (converted)
Sequence of Recombinant human DDR1 (Q08345 other isoform, or with tags, fused parts or gaps): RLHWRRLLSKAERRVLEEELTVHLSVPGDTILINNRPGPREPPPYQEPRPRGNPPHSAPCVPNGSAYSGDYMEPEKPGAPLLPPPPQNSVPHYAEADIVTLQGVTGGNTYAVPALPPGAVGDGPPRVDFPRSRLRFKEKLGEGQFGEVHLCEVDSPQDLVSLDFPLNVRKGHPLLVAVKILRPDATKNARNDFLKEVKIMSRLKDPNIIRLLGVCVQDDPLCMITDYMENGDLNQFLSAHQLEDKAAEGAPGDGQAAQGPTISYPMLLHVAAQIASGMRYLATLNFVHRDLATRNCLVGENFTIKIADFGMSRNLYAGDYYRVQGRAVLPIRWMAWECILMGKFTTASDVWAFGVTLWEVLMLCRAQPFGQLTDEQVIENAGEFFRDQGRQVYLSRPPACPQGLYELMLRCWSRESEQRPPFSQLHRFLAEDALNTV
Description: as §1, §2

Sequence of Recombinant human DDR2 (Q16832 427-855): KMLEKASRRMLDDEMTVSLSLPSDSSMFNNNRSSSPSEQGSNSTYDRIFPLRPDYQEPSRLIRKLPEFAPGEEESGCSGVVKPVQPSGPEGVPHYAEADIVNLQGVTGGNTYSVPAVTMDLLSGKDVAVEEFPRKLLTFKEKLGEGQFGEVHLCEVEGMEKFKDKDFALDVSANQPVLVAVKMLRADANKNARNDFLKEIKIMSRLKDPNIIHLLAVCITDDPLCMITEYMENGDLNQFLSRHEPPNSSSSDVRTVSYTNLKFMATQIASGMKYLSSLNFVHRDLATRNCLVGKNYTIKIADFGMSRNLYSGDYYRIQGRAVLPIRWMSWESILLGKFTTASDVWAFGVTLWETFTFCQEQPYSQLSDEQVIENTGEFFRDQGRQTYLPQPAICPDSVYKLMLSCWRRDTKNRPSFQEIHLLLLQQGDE

Cc1n[nH]c2cc(Nc3cccc4c3C(=O)N(CC(=O)N3CCCC(C(F)(F)F)C3)C4)ccc12 (stereo not shown) [Example 32, 7-[(3-methyl-1H-indazol-6-yl)amino]-2-[2-oxo-2-[3-(trifluoromethyl)-1-piperidyl]ethyl]isoindolin-1-one]
DDR2 pIC50 (Recombinant human DDR2): A (pIC50>8) | DDR1 pIC50 (Recombinant human DDR1): A (pIC50>8)

Cc1n[nH]c2cc(Nc3cccc4c3C(=O)N(CC(=O)N3CCC[C@H]3CF)C4)ccc12 [Example 33, 2-[2-[(2S)-(fluoromethyl)pyrrolidin-1-yl]-2-oxo-ethyl]-7-[(3-methyl-1H-indazol-6-yl)amino]isoindolin-1-one]
DDR2 pIC50 (Recombinant human DDR2): A (pIC50>8) | DDR1 pIC50 (Recombinant human DDR1): A (pIC50>8)

Cc1n[nH]c2cc(Nc3cccc4c3C(=O)N(CC(=O)N3CC(C(F)(F)F)C3)C4)ccc12 [Example 34, 7-[(3-methyl-1H-indazol-6-yl)amino]-2-[2-oxo-2-[3-(trifluoromethyl)azetidin-1-yl]ethyl]isoindolin-1-one]
IC50 (Recombinant human DDR2): 10 to 100 nM | IC50 (Recombinant human DDR1): 10 to 100 nM

Cc1n[nH]c2cc(Nc3cccc4c3C(=O)N(CC(=O)NC3CC3(F)F)C4)ccc12 (stereo not shown) [Example 36, N-(2,2-difluorocyclopropyl)-2-[7-[(3-methyl-1H-indazol-6-yl)amino]-1-oxo-isoindolin-2-yl]acetamide]
DDR2 pIC50 (Recombinant human DDR2): A (pIC50>8) | DDR1 pIC50 (Recombinant human DDR1): A (pIC50>8)

Cc1n[nH]c2cc(Nc3cccc4c3C(=O)N(CC(=O)Nc3ccc(CN(C)C)c(C(F)(F)F)c3)C4)ccc12 [Example 37, N-[4-[(dimethylamino)methyl]-3-(trifluoromethyl)phenyl]-2-[7-[(3-methyl-1H-indazol-6-yl)amino]-1-oxo-isoindolin-2-yl]acetamide]
IC50 (Recombinant human DDR2): 10 to 100 nM | DDR1 pIC50 (Recombinant human DDR1): A (pIC50>8)

Cc1n[nH]c2cc(Nc3cccc4c3C(=O)N(CC(=O)N3CCOC(C(F)(F)F)C3)C4)ccc12 (stereo not shown) [Example 38, 7-[(3-methyl-1H-indazol-6-yl)amino]-2-[2-oxo-2-[2-(trifluoromethyl)morpholin-4-yl]ethyl]isoindolin-1-one]
IC50 (Recombinant human DDR2): 10 to 100 nM | DDR1 pIC50 (Recombinant human DDR1): A (pIC50>8)

Cc1n[nH]c2cc(Nc3cccc4c3C(=O)N(CC(=O)Nc3cc(CN(C)C)cc(C(F)(F)F)c3)C4)ccc12 [Example 39, N-[3-[(dimethylamino)methyl]-5-(trifluoromethyl)phenyl]-2-[7-[(3-methyl-1H-indazol-6-yl)amino]-1-oxo-isoindolin-2-yl]acetamide]
IC50 (Recombinant human DDR2): 10 to 100 nM | DDR1 pIC50 (Recombinant human DDR1): A (pIC50>8)

Cc1n[nH]c2cc(Nc3cccc4c3C(=O)N(CC(=O)Nc3cnoc3)C4)ccc12 [Example 40, N-isoxazol-4-yl-2-[7-[(3-methyl-1H-indazol-6-yl)amino]-1-oxo-isoindolin-2-yl]acetamide]
DDR2 pIC50 (Recombinant human DDR2): A (pIC50>8) | DDR1 pIC50 (Recombinant human DDR1): A (pIC50>8)

Cc1n[nH]c2cc(Nc3cccc4c3C(=O)N(CC(=O)N3CCC[C@H]3C(F)F)C4)ccc12 [Example 41, 7-[(3-methyl-1H-indazol-6-yl)amino]-2-[2-oxo-2-[(2S)-(difluoromethyl)pyrrolidin-1-yl]ethyl]isoindolin-1-one]
DDR2 pIC50 (Recombinant human DDR2): A (pIC50>8) | DDR1 pIC50 (Recombinant human DDR1): A (pIC50>8)

Cc1n[nH]c2cc(Nc3cccc4c3C(=O)N(CC(=O)N3CCCC[C@H]3C(F)(F)F)C4)ccc12 [Example 42, 7-[(3-methyl-1H-indazol-6-yl)amino]-2-[2-oxo-2-[(2S)-(trifluoromethyl)-1-piperidyl]ethyl]isoindolin-1-one]
IC50 (Recombinant human DDR2): < 10 nM | IC50 (Recombinant human DDR1): < 10 nM

CN(CC(F)(F)F)C(=O)CN1Cc2cccc(Nc3ccc4c(cnn4C)c3)c2C1=O [Example 43, N-methyl-2-[7-[(1-methylindazol-5-yl)amino]-1-oxo-isoindolin-2-yl]-N-(2,2,2-trifluoroethyl)acetamide]
IC50 (Recombinant human DDR2): 10 to 100 nM | DDR1 pIC50 (Recombinant human DDR1): A (pIC50>8)

Cn1ncc2cc(Nc3cccc4c3C(=O)N(CC(=O)N3CCOC[C@H]3C(F)(F)F)C4)ccc21 [Example 44, 7-[(1-methylindazol-5-yl)amino]-2-[2-oxo-2-[(3S)-(trifluoromethyl)morpholin-4-yl]ethyl]isoindolin-1-one]
IC50 (Recombinant human DDR2): 100 to 1000 nM | IC50 (Recombinant human DDR1): 10 to 100 nM

Cn1ncc2cc(Nc3cccc4c3C(=O)N(CC(=O)N3CCOC[C@@H]3C(F)(F)F)C4)ccc21 [Example 45, 7-[(1-methylindazol-5-yl)amino]-2-[2-oxo-2-[(3R)-(trifluoromethyl)morpholin-4-yl]ethyl]isoindolin-1-one]
IC50 (Recombinant human DDR2): 10 to 100 nM | IC50 (Recombinant human DDR1): < 10 nM

Cc1n[nH]c2cc(Nc3cccc4c3C(=O)N(CC(=O)N(C)CC(F)(F)F)C4)ccc12 [Example 46, N-methyl-2-[7-[(3-methyl-1H-indazol-6-yl)amino]-1-oxo-isoindolin-2-yl]-N-(2,2,2-trifluoroethyl)acetamide]
DDR2 pIC50 (Recombinant human DDR2): A (pIC50>8) | DDR1 pIC50 (Recombinant human DDR1): A (pIC50>8)

Cc1n[nH]c2cc(Nc3cccc4c3C(=O)N(CC(=O)N3CCO[C@@H](C(F)(F)F)C3)C4)ccc12 [Example 47, 7-[(3-methyl-1H-indazol-6-yl)amino]-2-[2-oxo-2-[(2R)-(trifluoromethyl)morpholin-4-yl]ethyl]isoindolin-1-one]
IC50 (Recombinant human DDR2): 10 to 100 nM | DDR1 pIC50 (Recombinant human DDR1): A (pIC50>8)

Cc1n[nH]c2cc(Nc3cccc4c3C(=O)N(CC(=O)N3CCO[C@H](C(F)(F)F)C3)C4)ccc12 [Example 48, 7-[(3-methyl-1H-indazol-6-yl)amino]-2-[2-oxo-2-[(2S)-(trifluoromethyl)morpholin-4-yl]ethyl]isoindolin-1-one]
IC50 (Recombinant human DDR2): 10 to 100 nM | DDR1 pIC50 (Recombinant human DDR1): A (pIC50>8)

Cn1ncc2cc(Nc3cccc4c3C(=O)N(CC(=O)NC(C)(C)C(F)(F)F)C4)ccc21 [Example 49, 2-[7-[(1-methylindazol-5-yl)amino]-1-oxo-isoindolin-2-yl]-N-(2,2,2-trifluoro-1,1-dimethyl-ethyl)acetamide]
DDR2 pIC50 (Recombinant human DDR2): A (pIC50>8) | DDR1 pIC50 (Recombinant human DDR1): A (pIC50>8)

Cn1ncc2cc(Nc3cccc4c3C(=O)N(CC(=O)N3CCC3C(F)(F)F)C4)ccc21 (stereo not shown) [Example 50, 7-[(1-methylindazol-5-yl)amino]-2-[2-oxo-2-[2-(trifluoromethyl)azetidin-1-yl]ethyl]isoindolin-1-one]
DDR2 pIC50 (Recombinant human DDR2): A (pIC50>8) | DDR1 pIC50 (Recombinant human DDR1): A (pIC50>8)

Cn1ncc2cc(Nc3cccc4c3C(=O)N(CC(=O)N3CCC[C@H]3C(F)(F)F)C4)cnc21 [Example 51, 7-[(1-methylpyrazolo[3,4-b]pyridin-5-yl)amino]-2-[2-oxo-2-[(2S)-2-(trifluoromethyl)pyrrolidin-1-yl]ethyl]isoindolin-1-one]
DDR2 pIC50 (Recombinant human DDR2): A (pIC50>8) | DDR1 pIC50 (Recombinant human DDR1): A (pIC50>8)

Cn1ncc2cc(Nc3cccc4c3C(=O)N(CC(=O)NC3CC3(F)F)C4)cnc21 (stereo not shown) [Example 52, N-(2,2-difluorocyclopropyl)-2-[7-[(1-methylpyrazolo[3,4-b]pyridin-5-yl)amino]-1-oxo-isoindolin-2-yl]acetamide]
IC50 (Recombinant human DDR2): 100 to 1000 nM | IC50 (Recombinant human DDR1): 10 to 100 nM

C[C@H](NC(=O)CN1Cc2cccc(Nc3cnc4c(cnn4C)c3)c2C1=O)C(F)(F)F [Example 53, 2-[7-[(1-methylpyrazolo[3,4-b]pyridin-5-yl)amino]-1-oxo-isoindolin-2-yl]-N-[(1S)-2,2,2-trifluoro-1-methyl-ethyl]acetamide]
IC50 (Recombinant human DDR2): 10 to 100 nM | DDR1 pIC50 (Recombinant human DDR1): A (pIC50>8)

Cn1ncc2cc(Nc3cccc4c3C(=O)N(CC(=O)N3CCO[C@H](C(F)(F)F)C3)C4)cnc21 [Example 54, 7-[(1-methylpyrazolo[3,4-b]pyridin-5-yl)amino]-2-[2-oxo-2-[(2S)-(trifluoromethyl)morpholin-4-yl]ethyl]isoindolin-1-one]
IC50 (Recombinant human DDR2): 100 to 1000 nM | IC50 (Recombinant human DDR1): 100 to 1000 nM

Cn1ncc2cc(Nc3cccc4c3C(=O)N(CC(=O)N3CCO[C@@H](C(F)(F)F)C3)C4)cnc21 [Example 55, 7-[(1-methylpyrazolo[3,4-b]pyridin-5-yl)amino]-2-[2-oxo-2-[(2R)-(trifluoromethyl)morpholin-4-yl]ethyl]isoindolin-1-one]
IC50 (Recombinant human DDR2): 100 to 1000 nM | IC50 (Recombinant human DDR1): 100 to 1000 nM

Cn1ncc2cc(Nc3cccc4c3C(=O)N(CC(=O)N3CCC[C@H]3CF)C4)cnc21 [Example 56, 7-[(1-methylpyrazolo[3,4-b]pyridin-5-yl)amino]-2-[2-oxo-2-[(2S)-(fluoromethyl)pyrrolidin-1-yl]ethyl]isoindolin-1-one]
IC50 (Recombinant human DDR2): 10 to 100 nM | IC50 (Recombinant human DDR1): 10 to 100 nM

Cn1ncc2cc(Nc3cccc4c3C(=O)N(CC(=O)N3CCOC[C@@H]3C(F)(F)F)C4)cnc21 [Example 57, 7-[(1-methylpyrazolo[3,4-b]pyridin-5-yl)amino]-2-[2-oxo-2-[(3R)-(trifluoromethyl)morpholin-4-yl]ethyl]isoindolin-1-one]
IC50 (Recombinant human DDR2): ≥ 1000 nM | IC50 (Recombinant human DDR1): ≥ 1000 nM

Cn1ncc2cc(Nc3cccc4c3C(=O)N(CC(=O)N3CCC[C@H]3C(F)F)C4)cnc21 [Example 58, 7-[(1-methylpyrazolo[3,4-b]pyridin-5-yl)amino]-2-[2-oxo-2-[(2S)-(difluoromethyl)pyrrolidin-1-yl]ethyl]isoindolin-1-one]
IC50 (Recombinant human DDR2): 10 to 100 nM | DDR1 pIC50 (Recombinant human DDR1): A (pIC50>8)

Reference: US20260069571A1, “DDR1 AND DDR2 INHIBITORS FOR THE TREATEMENT OF CANCER AND FIBROTIC DISEASES” (REDX PHARMA PLC, priority 2021, published 2026)
